Reference: the NIST ThermoML archive (doi:10.1016/j.jct.2017.11.012)
Numbers after ± are expanded uncertainties.

Conditions: for mass density: 101.33 kPa, Liquid, Buoyancy - hydrostatic balance with magnetic suspension - one sinker

CCCCCCn1cc[n+](C)c1.[Br-] [3-hexyl-1-methyl-1H-imidazolium bromide]
surface tension liquid-gas [mN/m]
Conditions	Ring tensiometer	Wilhelmy Plate
288.65 K	40.83 ± 0.76	–
293.93 K	40.58 ± 0.76	–
298.48 K	40.31 ± 0.76	–
303.39 K	40.14 ± 0.76	–
303.45 K	–	39.75 ± 0.12
308.08 K	39.96 ± 0.75	–
308.14 K	–	39.56 ± 0.12
313.4 K	39.68 ± 0.75	–
313.41 K	–	39.34 ± 0.12
318.16 K	39.45 ± 0.75	39.12 ± 0.12
323.29 K	–	38.8 ± 0.12
323.34 K	39.07 ± 0.75	–
328.24 K	–	38.58 ± 0.12
328.26 K	38.83 ± 0.75	–
333.84 K	38.51 ± 0.74	–
333.86 K	–	38.26 ± 0.12
338.01 K	38.31 ± 0.74	–
338.05 K	–	38.08 ± 0.11
343.05 K	38.09 ± 0.74	–
343.07 K	–	37.86 ± 0.11
348.61 K	37.8 ± 0.74	–
348.66 K	–	37.51 ± 0.11
352.53 K	37.43 ± 0.74	–
352.73 K	–	37.37 ± 0.11
358.19 K	37.28 ± 0.73	–
358.21 K	–	37.02 ± 0.11
360.12 K	37.19 ± 0.73	–
360.23 K	–	36.96 ± 0.11

Conditions	mass density [kg/m3]
288.7 K	1235.51 ± 0.69
293.91 K	1231.69 ± 0.69
298.52 K	1228.13 ± 0.69
303.43 K	1224.72 ± 0.69
308.13 K	1220.87 ± 0.69
313.41 K	1216.98 ± 0.69
318.19 K	1213.32 ± 0.69
323.33 K	1209.5 ± 0.69
328.2 K	1205.7 ± 0.69
333.8 K	1201.57 ± 0.69
338.04 K	1198.15 ± 0.69
343.07 K	1195.21 ± 0.69
348.64 K	1191.41 ± 0.69
352.79 K	1188.62 ± 0.69
358.28 K	1185.22 ± 0.69
360.63 K	1183.34 ± 0.69

CCCCCCCCn1cc[n+](C)c1.[Br-] [1-methyl-3-octylimidazolium bromide]
Conditions	mass density [kg/m3]
293.61 K	1173.83 ± 0.79
298.22 K	1170.38 ± 0.79
303.23 K	1166.69 ± 0.79
307.98 K	1163.19 ± 0.79
313.53 K	1159.21 ± 0.79
318.39 K	1155.7 ± 0.79
323.35 K	1151.66 ± 0.79
328.26 K	1147.97 ± 0.79
332.57 K	1145.04 ± 0.79
338.39 K	1140.81 ± 0.79
342.96 K	1137.99 ± 0.79
347.82 K	1135.43 ± 0.79
353.15 K	1131.58 ± 0.79
358.97 K	1127.78 ± 0.79
360.84 K	1126.32 ± 0.79

surface tension liquid-gas [mN/m]
Conditions	Ring tensiometer	Wilhelmy Plate
303.23 K	32.9 ± 0.63	32.52 ± 0.12
307.93 K	–	32.34 ± 0.12
307.95 K	32.68 ± 0.63	–
313.51 K	32.49 ± 0.63	32.16 ± 0.12
318.36 K	–	31.99 ± 0.12
318.37 K	32.28 ± 0.63	–
323.33 K	–	31.75 ± 0.12
323.34 K	32.03 ± 0.62	–
328.25 K	–	31.56 ± 0.12
328.26 K	31.79 ± 0.62	–
332.59 K	31.67 ± 0.62	–
332.6 K	–	31.43 ± 0.12
338.4 K	31.5 ± 0.62	–
338.44 K	–	31.17 ± 0.11
343.06 K	30.97 ± 0.62	–
343.07 K	–	30.89 ± 0.11
347.49 K	30.57 ± 0.61	–
347.69 K	–	30.73 ± 0.11
352.5 K	–	30.58 ± 0.11
352.52 K	30.66 ± 0.61	–
357.51 K	30.27 ± 0.61	–
357.64 K	–	30.33 ± 0.11
360.82 K	30.43 ± 0.61	–
360.88 K	–	30.24 ± 0.11

CCCCCn1cc[n+](C)c1.[Br-] [1-pentyl-3-methylimidazolium bromide]
Conditions	mass density [kg/m3]
298.49 K	1262.83 ± 0.69
303.3 K	1259.38 ± 0.69
308.12 K	1256.49 ± 0.69
313.27 K	1252.83 ± 0.69
318.27 K	1249.49 ± 0.69
323.3 K	1245.55 ± 0.69
327.41 K	1242.66 ± 0.69
333.16 K	1239.16 ± 0.69
338.01 K	1236.12 ± 0.69
343.01 K	1232.8 ± 0.69
348.13 K	1229.53 ± 0.69
353.01 K	1226.21 ± 0.69
358.12 K	1222.61 ± 0.69
362.97 K	1219.41 ± 0.69

Conditions	surface tension liquid-gas [mN/m]
333.23 K, Ring tensiometer	41.96 ± 0.94
333.26 K, Wilhelmy Plate	41.79 ± 0.11
338.06 K, Ring tensiometer	41.95 ± 0.94
338.08 K, Wilhelmy Plate	41.6 ± 0.11
343.07 K, Ring tensiometer	41.84 ± 0.94
343.09 K, Wilhelmy Plate	41.38 ± 0.11
348.23 K, Ring tensiometer	41.59 ± 0.94
348.26 K, Wilhelmy Plate	41.18 ± 0.11
353.11 K, Ring tensiometer	41.45 ± 0.94
353.13 K, Wilhelmy Plate	41 ± 0.1
358.22 K, Ring tensiometer	41.24 ± 0.94
358.24 K, Wilhelmy Plate	40.81 ± 0.1
363.07 K, Ring tensiometer	41.04 ± 0.94
363.12 K, Wilhelmy Plate	40.6 ± 0.1

Br.Cn1ccnc1 [1-methylimidazolium bromide]
surface tension liquid-gas [mN/m]
Conditions	Ring tensiometer	Wilhelmy Plate
323.07 K	67.99 ± 1	68.35 ± 0.18
328.84 K	67.68 ± 1	67.81 ± 0.17
332.74 K	–	67.37 ± 0.17
332.76 K	67.45 ± 1	–
337.93 K	67.14 ± 1	–
338.02 K	–	66.81 ± 0.17
344.29 K	66 ± 1	–
344.42 K	–	66.16 ± 0.17
347.21 K	65.6 ± 1	–
347.25 K	–	65.85 ± 0.17
353.02 K	64.6 ± 0.99	–
353.08 K	–	65.23 ± 0.17
358.29 K	64.85 ± 0.99	–
358.33 K	–	64.67 ± 0.17
364.65 K	64.42 ± 0.99	–
364.75 K	–	63.96 ± 0.17

Conditions	mass density [kg/m3]
328.83 K	1557.9 ± 0.9
332.76 K	1554.36 ± 0.9
337.92 K	1550.16 ± 0.9
344.29 K	1544.92 ± 0.9
347.1 K	1542.88 ± 0.9
353.02 K	1538.47 ± 0.9
358.15 K	1534.17 ± 0.9
364.58 K	1530.63 ± 0.9

CCC[n+]1ccn(C)c1.[Br-] [1-methyl-3-propylimidazolium bromide]
surface tension liquid-gas [mN/m]
Conditions	Ring tensiometer	Wilhelmy Plate
328.53 K	–	55.02 ± 0.1
328.55 K	55.07 ± 0.75	–
333.09 K	–	54.74 ± 0.1
333.1 K	55.08 ± 0.75	–
337.75 K	54.69 ± 0.75	54.46 ± 0.1
343.78 K	54.17 ± 0.74	–
343.8 K	–	53.93 ± 0.1
347.98 K	53.66 ± 0.74	–
348.01 K	–	53.75 ± 0.1
352.22 K	–	53.51 ± 0.1
352.34 K	53.52 ± 0.73	–
358.15 K	52.86 ± 0.73	–
358.17 K	–	53.09 ± 0.1
362.78 K	52.94 ± 0.73	–
362.89 K	–	52.72 ± 0.1

Conditions	mass density [kg/m3]
333.07 K	1332.55 ± 0.54
337.73 K	1329.41 ± 0.54
343.74 K	1325.39 ± 0.54
347.91 K	1322.26 ± 0.54
352.28 K	1318.84 ± 0.54
358.1 K	1314.79 ± 0.54
362.76 K	1310.9 ± 0.54
